Reference: the CheMixHub ionic liquid set

Test: xn = mol fraction of the nth substance listed

CCCC[n+]1ccn(C)c1.O=S(=O)([N-]S(=O)(=O)C(F)(F)F)C(F)(F)F + CCO
Conditions	electrical conductivity [S/m]	viscosity [mPa·s]
293 K, 100 kPa, x1 = 0.5784	–	20.7
293.3 K, 100 kPa, x1 = 0.4606	–	13.8
293.3 K, 100 kPa, x1 = 0.747	–	32.1
293.61 K, 100 kPa, x1 = 0.2688	–	6.37
293.61 K, 100 kPa, x1 = 1	–	61.8
293.91 K, 100 kPa, x1 = 0.2129	–	5.12
293.91 K, 100 kPa, x1 = 0.4606	–	13.5
293.91 K, 100 kPa, x1 = 0.6609	–	24.2
294.21 K, 100 kPa, x1 = 0.4215	–	12.22
294.21 K, 100 kPa, x1 = 0.6609	–	23.9
294.21 K, 100 kPa, x1 = 1	–	60.2
294.52 K, 100 kPa, x1 = 0.747	–	30.8
294.52 K, 100 kPa, x1 = 0.8264	–	38.5
294.52 K, 100 kPa, x1 = 1	–	59.4
294.82 K, 100 kPa, x1 = 0.4215	–	11.98
294.82 K, 100 kPa, x1 = 1	–	58.6
295.12 K, 100 kPa, x1 = 0.4215	–	11.87
295.12 K, 100 kPa, x1 = 0.747	–	30.1
295.42 K, 100 kPa, x1 = 0.2129	–	4.94
295.42 K, 100 kPa, x1 = 0.2688	–	6.11
295.42 K, 100 kPa, x1 = 0.4606	–	12.94
295.73 K, 100 kPa, x1 = 0.8264	–	36.7
296.64 K, 100 kPa, x1 = 0.2688	–	5.94
296.64 K, 100 kPa, x1 = 0.4606	–	12.48
296.64 K, 100 kPa, x1 = 1	–	54.1
296.94 K, 100 kPa, x1 = 0.4606	–	12.36
296.94 K, 100 kPa, x1 = 0.747	–	28.4
297.24 K, 100 kPa, x1 = 0.2688	–	5.85
297.24 K, 100 kPa, x1 = 0.4215	–	11.09
297.24 K, 100 kPa, x1 = 0.5784	–	18.17
297.24 K, 100 kPa, x1 = 0.747	–	28.1
297.55 K, 100 kPa, x1 = 0.8264	–	34.1
297.85 K, 100 kPa, x1 = 1	–	51.4
298 K, 100 kPa, x1 = 0.02	0.415	–
298 K, 100 kPa, x1 = 0.03	0.5634	–
298 K, 100 kPa, x1 = 0.05	–	1.663
298 K, 100 kPa, x1 = 0.06	0.8844	–
298 K, 100 kPa, x1 = 0.07	0.958	–
298 K, 100 kPa, x1 = 0.0999	–	2.413
298 K, 100 kPa, x1 = 0.1	1.118	–
298 K, 100 kPa, x1 = 0.1999	–	4.331
298 K, 100 kPa, x1 = 0.2	1.28	–
298 K, 100 kPa, x1 = 0.2993	–	6.629
298 K, 100 kPa, x1 = 0.3	1.216	–
298 K, 100 kPa, x1 = 0.397	–	9.56
298 K, 100 kPa, x1 = 0.4	1.09	–
298 K, 100 kPa, x1 = 0.4836	–	12.74
298 K, 100 kPa, x1 = 0.5	0.9534	–
298 K, 100 kPa, x1 = 0.6	0.8239	–
298 K, 100 kPa, x1 = 0.6978	–	23.61
298 K, 100 kPa, x1 = 0.7	0.6839	–
298 K, 100 kPa, x1 = 0.8	0.575	–
298 K, 100 kPa, x1 = 0.8001	–	30.86
298 K, 100 kPa, x1 = 0.8987	–	38.32
298 K, 100 kPa, x1 = 0.9	0.4819	–
298 K, 100 kPa, x1 = 1	–	49.7
298.15 K, 100 kPa, x1 = 0.2129	–	4.64
298.15 K, 100 kPa, x1 = 0.2688	–	5.73
298.15 K, 101 kPa, x2 = 0.1174	–	38.5
298.45 K, 100 kPa, x1 = 0.6609	–	21
298.45 K, 100 kPa, x1 = 0.747	–	27
298.76 K, 100 kPa, x1 = 0.4215	–	10.58
298.76 K, 100 kPa, x1 = 0.8264	–	32.6
299.06 K, 100 kPa, x1 = 0.2129	–	4.55
299.06 K, 100 kPa, x1 = 0.5784	–	17.18
299.06 K, 100 kPa, x1 = 0.6609	–	20.6
299.67 K, 100 kPa, x1 = 0.4606	–	11.41
299.97 K, 100 kPa, x1 = 0.2129	–	4.45
299.97 K, 100 kPa, x1 = 0.5784	–	16.72
300.27 K, 100 kPa, x1 = 0.2129	–	4.42
300.27 K, 100 kPa, x1 = 0.4215	–	10.11
300.27 K, 100 kPa, x1 = 0.747	–	25.4
300.27 K, 100 kPa, x1 = 0.8264	–	30.7
300.58 K, 100 kPa, x1 = 0.4215	–	10.02
300.88 K, 100 kPa, x1 = 0.2688	–	5.37
300.88 K, 100 kPa, x1 = 0.4215	–	9.92
301.18 K, 100 kPa, x1 = 0.2688	–	5.34
301.48 K, 100 kPa, x1 = 0.2129	–	4.3
302.7 K, 100 kPa, x1 = 0.2129	–	4.18
302.7 K, 100 kPa, x1 = 0.2688	–	5.15
302.7 K, 100 kPa, x1 = 0.747	–	23.5
302.7 K, 100 kPa, x1 = 0.8264	–	28.1
303 K, 100 kPa, x1 = 0.4606	–	10.38
303 K, 100 kPa, x1 = 0.747	–	23.2
303.3 K, 100 kPa, x1 = 0.2688	–	5.08
303.91 K, 100 kPa, x1 = 0.8264	–	26.8
304.52 K, 100 kPa, x1 = 0.4606	–	9.95
304.52 K, 100 kPa, x1 = 0.5784	–	14.59
304.52 K, 100 kPa, x1 = 1	–	39.3
304.82 K, 100 kPa, x1 = 0.2688	–	4.9
304.82 K, 100 kPa, x1 = 0.4215	–	8.85
304.82 K, 100 kPa, x1 = 0.747	–	21.9
305.12 K, 100 kPa, x1 = 1	–	38.4
306.03 K, 100 kPa, x1 = 0.2688	–	4.76
306.33 K, 100 kPa, x1 = 0.5784	–	13.83
306.33 K, 100 kPa, x1 = 0.8264	–	24.6
306.64 K, 100 kPa, x1 = 0.2688	–	4.69
306.64 K, 100 kPa, x1 = 0.6609	–	16.39
306.94 K, 100 kPa, x1 = 0.2129	–	3.8
307.24 K, 100 kPa, x1 = 0.4215	–	8.27
307.24 K, 100 kPa, x1 = 0.4606	–	9.23
308.15 K, 100 kPa, x1 = 0.2688	–	4.53
308.15 K, 100 kPa, x1 = 0.6609	–	15.67
308.45 K, 100 kPa, x1 = 0.2129	–	3.67
308.45 K, 100 kPa, x1 = 0.6609	–	15.53
308.45 K, 100 kPa, x1 = 0.747	–	19.5
308.76 K, 100 kPa, x1 = 0.4215	–	7.93
308.76 K, 100 kPa, x1 = 0.5784	–	12.88
308.76 K, 100 kPa, x1 = 0.747	–	19.3
309.06 K, 100 kPa, x1 = 0.2688	–	4.44
309.67 K, 100 kPa, x1 = 0.4215	–	7.73
309.67 K, 100 kPa, x1 = 1	–	32.4
309.97 K, 100 kPa, x1 = 0.4606	–	8.58
309.97 K, 100 kPa, x1 = 0.747	–	18.6
310.58 K, 100 kPa, x1 = 0.747	–	18.3
310.88 K, 100 kPa, x1 = 0.2129	–	3.47
310.88 K, 100 kPa, x1 = 0.5784	–	12.12
310.88 K, 100 kPa, x1 = 0.8264	–	20.9
311.18 K, 100 kPa, x1 = 0.4606	–	8.31
311.48 K, 100 kPa, x1 = 0.2129	–	3.42
311.79 K, 100 kPa, x1 = 0.4606	–	8.18
311.79 K, 100 kPa, x1 = 0.5784	–	11.8
311.79 K, 100 kPa, x1 = 0.747	–	17.58
311.79 K, 100 kPa, x1 = 0.8264	–	20.3
312.09 K, 100 kPa, x1 = 0.2688	–	4.13
312.09 K, 100 kPa, x1 = 0.6609	–	13.95
312.39 K, 100 kPa, x1 = 0.2688	–	4.1
312.39 K, 100 kPa, x1 = 0.4606	–	8.05
312.7 K, 100 kPa, x1 = 0.2688	–	4.07
313 K, 100 kPa, x1 = 0.747	–	16.94
313 K, 100 kPa, x1 = 1	–	28.8
313.3 K, 100 kPa, x1 = 0.4215	–	7.02
313.61 K, 100 kPa, x1 = 0.8264	–	19
313.91 K, 100 kPa, x1 = 0.6609	–	13.23
313.91 K, 100 kPa, x1 = 0.747	–	16.47
314.21 K, 100 kPa, x1 = 0.2129	–	3.21
314.21 K, 100 kPa, x1 = 0.2688	–	3.93
314.21 K, 100 kPa, x1 = 0.747	–	16.32
314.52 K, 100 kPa, x1 = 0.5784	–	10.92
314.52 K, 100 kPa, x1 = 0.747	–	16.17
314.82 K, 100 kPa, x1 = 0.6609	–	12.88
315.12 K, 100 kPa, x1 = 0.8264	–	18.1
315.42 K, 100 kPa, x1 = 0.2688	–	3.82
315.42 K, 100 kPa, x1 = 0.6609	–	12.66
315.73 K, 100 kPa, x1 = 0.4215	–	6.59
315.73 K, 100 kPa, x1 = 0.5784	–	10.55
315.73 K, 100 kPa, x1 = 0.6609	–	12.55
316.03 K, 100 kPa, x1 = 0.2688	–	3.77
316.33 K, 100 kPa, x1 = 0.4606	–	7.27
316.64 K, 100 kPa, x1 = 0.4215	–	6.44
316.64 K, 100 kPa, x1 = 0.5784	–	10.29
316.64 K, 100 kPa, x1 = 1	–	25.4
316.94 K, 100 kPa, x1 = 0.6609	–	12.12
316.94 K, 100 kPa, x1 = 0.8264	–	17
317.24 K, 100 kPa, x1 = 0.6609	–	12.01
317.55 K, 100 kPa, x1 = 0.2688	–	3.64
317.55 K, 100 kPa, x1 = 0.4215	–	6.29
317.55 K, 100 kPa, x1 = 0.5784	–	10.03
317.85 K, 100 kPa, x1 = 0.4215	–	6.24
317.85 K, 100 kPa, x1 = 0.6609	–	11.8
318.15 K, 100 kPa, x1 = 0.2688	–	3.58
318.15 K, 100 kPa, x1 = 0.4606	–	6.94
318.76 K, 100 kPa, x1 = 0.4606	–	6.83
318.76 K, 100 kPa, x1 = 0.5784	–	9.69
318.76 K, 100 kPa, x1 = 1	–	23.7
319.06 K, 100 kPa, x1 = 0.2129	–	2.87
319.67 K, 100 kPa, x1 = 0.4215	–	5.97
319.67 K, 100 kPa, x1 = 0.747	–	13.83
319.97 K, 100 kPa, x1 = 0.4606	–	6.63
319.97 K, 100 kPa, x1 = 0.5784	–	9.37
320.27 K, 100 kPa, x1 = 0.5784	–	9.29
320.27 K, 100 kPa, x1 = 0.747	–	13.58
320.27 K, 100 kPa, x1 = 0.8264	–	15.24
320.58 K, 100 kPa, x1 = 0.4215	–	5.83
321.18 K, 100 kPa, x1 = 0.4606	–	6.43
321.18 K, 100 kPa, x1 = 0.6609	–	10.73
321.48 K, 100 kPa, x1 = 0.747	–	13.09
321.79 K, 100 kPa, x1 = 0.2688	–	3.29
321.79 K, 100 kPa, x1 = 0.4606	–	6.33
322.09 K, 100 kPa, x1 = 0.2129	–	2.67
322.09 K, 100 kPa, x1 = 0.4215	–	5.62
322.09 K, 100 kPa, x1 = 1	–	21.3
322.39 K, 100 kPa, x1 = 0.747	–	12.74
322.7 K, 100 kPa, x1 = 0.747	–	12.63
323 K, 100 kPa, x1 = 0.4606	–	6.15

CN(C)C=O + CC[n+]1ccn(C)c1.O=S(=O)([O-])C(F)(F)F
Conditions	viscosity [mPa·s]
298.15 K, 100 kPa, x1 = 1	0.81
